One series relates to patients. As to conditions: injection, alone or combined with pheniolamine; cited from earlier work.
The test system of a further series is human male. The series is classed as in vivo. The procedure:
The peptides described herein were prepared by sterile methods to a final concentration of 10 mg of peptide per ml of physiological salina. In addition to a full dose providing 10 mg of the peptide to the individual, doses of 0.1 to 0.3 ml (providing 1 mg to 3 mg of the peptide to each individual) of this stock material were also injected into volunteers, with a dose of 0.1 to 0.2 ml being the most often used dosage.
A dose of 3.75 mg given to volunteers produced a long lasting erection of 4 to 6 hour duration. […] In some, this discomfort was considerable. […] Accordingly, although dosages of from about 1.0 mg to about 10.0 mg show the desired activity according to the present invention, it is preferred that the lower ranges of dosage which bring about the desired erection without undesirable side effects be used. Accordingly, it is preferred that dosages of about 1.5 mg to 2.5 mg of peptide be provided when the route of administration is subcutaneous or intramuscular. With other routes of administration, this range may require adjustment, however, it is still preferred that the lower range of adjusted effective dosages for the selected route of administration be used.
Another of the peptides according to the present invention (Ac-Nle-Asp-His-D-Phe-Cl-Arg-Trp-Lys-Gly-NH2) induced an erection within 60 minutes following administration at a concentration of 2.5 mg. This erection lasted, intermittently, for up to six hours.

The test system of another series is castrated dog. Nature of the series: Erectile response after injection into the castrated dog. The series is classed as in vivo.

Read-outs that look alike come from different tables or passages of the source. dPhe(Cl) = D-phenylalanine carrying a chlorine on the ring; Nle = CCCC[C@H](N)C(=O)O

With `COc1ccc(Cc2nccc3cc(OC)c(OC)cc23)cc1OC` [papaverine], the “patients in whom an erection is induced” value in the series with patients is “about 70%”.

On to “Ac-Nle-Asp-His-D-Phe-Cl-Arg-Trp-Lys-Gly-NH2 ({Ac-Nle-Asp-H2N-dPhe(Cl)}-RWKG-NH2)”, for which the “time to erection following administration” value in the series on human male (1.25 mg, compared with 2.5 mg, human) is “took longer to initially occur”; with human male (2.5 mg, human) it was no more than 60 min. The “duration of erection (sustained intermittently)” value in the series with human male (1.25 mg, human) is listed as “up to 6 hours”.

For the molecule “Ac-Nle-Asp-His-D-Phe-Cl-Arg-Trp-Lys-NH2 [Example II]”, in the series with human male (1.25 mg (smallest dose) subcutaneously, human volunteers), the erectile activity result is given as “generally no erectile activity was noted”. In addition, the stomach discomfort result in the series with human male (human, in vivo) is “stomach discomfort was noted”. The erectile response result was “did so” in the series on castrated dog (castrated dog first primed with testosterone) and “caused no erectile response” with castrated dog (castrated dog, not primed).

Regarding “Ac-Ser-Tyr-Ser-Nle-Glu-His-D-Phe-Cl-Arg-Trp-Gly-Lys-Pro-Val-NH2 [reference compound]”, the erectile response entry in the series on human male (highest dose administered (about 20 mg), human) was “did not cause an erectile response”.
